Laboratory results as given in patent US8791102B2, “Acetanilide sphingosine-1-phosphate receptor antagonists” (Exelixis, Inc., priority 2008, dated 2014).

Biological target: T1, human S1P1 receptors (Homo sapiens, UniProt P21453)
T1 construct: host or cells: HEK293
Assay: S1P1R antagonist assay (fluorescent membrane potential dye, cAMP readout)
Assay type: cell-based
Conditions: HEK293 cells expressing human S1P1 receptors and CNG channel; 500 nM NECA; S1P1R agonist 10 nM; 90 minutes; read-out: EC50 or IC50 value

T1 sequence (P21453 whole entry): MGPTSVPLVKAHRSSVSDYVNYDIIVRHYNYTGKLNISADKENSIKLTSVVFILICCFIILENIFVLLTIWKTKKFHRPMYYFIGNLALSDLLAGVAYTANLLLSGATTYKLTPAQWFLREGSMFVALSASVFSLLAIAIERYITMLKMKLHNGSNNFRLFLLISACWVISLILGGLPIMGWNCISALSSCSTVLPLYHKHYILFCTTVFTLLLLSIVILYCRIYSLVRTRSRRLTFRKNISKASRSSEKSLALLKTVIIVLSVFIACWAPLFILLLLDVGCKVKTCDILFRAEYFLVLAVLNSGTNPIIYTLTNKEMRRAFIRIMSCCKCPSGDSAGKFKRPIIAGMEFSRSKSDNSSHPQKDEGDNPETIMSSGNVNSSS

| Structure (SMILES) | IC50 |
| --- | --- |
| CC(O)CC(=O)N1C[C@H](Cc2ccccc2)C[C@H]1C(=O)Nc1ccc(Oc2ccc(F)cc2)cc1 (stereo partly drawn) [Compound 118, (2S,4R)-4-benzyl-N-(4-(4-fluorophenoxy)phenyl)-1-(3-hydroxybutanoyl)pyrrolidine-2-carboxamide] | ≤ 0.3 µM |
| COCCOCC(=O)NC(COCc1ccccc1)C(=O)Nc1ccc(Oc2ccccc2)cc1 (stereo not shown) [Compound 303, N-(2-oxo-1-{[(phenylmethyl)oxy]methyl}-2-{[4-(phenyloxy)phenyl]amino}ethyl)-2-methoxyethoxyacetamide] | 0.3 to 1 µM |
| Cc1cc(Oc2ccc(NC(=O)[C@@H]3C[C@@H](Cc4ccc(F)cc4)CN3C(=O)Cn3cncn3)cc2)ccc1F [Compound 73, (2S,4R)-1-(2-(1H-1,2,4-triazol-1-yl)acetyl)-N-(4-(4-fluoro-3-methylphenoxy)phenyl)-4-(4-fluorobenzyl)pyrrolidine-2-carboxamide] | ≤ 0.3 µM |
| O=C(NC(COCc1ccccc1)C(=O)Nc1ccc(Oc2ccccc2)cc1)C1CCC1 (stereo not shown) [Compound 402, N-(2-oxo-1-{[(phenylmethyl)oxy]methyl}-2-{[4-(phenyloxy)phenyl]amino}ethyl)cyclobutanecarboxamide] | > 1 µM |
| CC(=O)N1CCC[C@H]1C(=O)N1C[C@H](Cc2ccccc2)C[C@H]1C(=O)Nc1ccc(Oc2ccc(F)cc2)cc1 [Compound 93, (2S,4R)-1-((S)-1-acetylpyrrolidine-2-carbonyl)-4-benzyl-N-(4-(4-fluorophenoxy)phenyl)pyrrolidine-2-carboxamide] | ≤ 0.3 µM |
| O=C(NC(COCc1ccccc1)C(=O)Nc1ccc(Oc2ccccc2)cc1)c1cc(F)cc(C(F)(F)F)c1 (stereo not shown) [Compound 398, 3-fluoro-N-(2-oxo-1-{[(phenylmethyl)oxy]methyl}-2-{[4-(phenyloxy)phenyl]amino}ethyl)-5-(trifluoromethyl)benzamide] | > 1 µM |
| O=C(Nc1ccc(Oc2ccc(F)cc2)cc1)[C@@H]1C[C@@H](Cc2cccc(Cl)c2)CN1C(=O)Cn1cncn1 [Compound 61, (2S,4R)-1-(2-(1H-1,2,4-triazol-1-yl)acetyl)-4-(3-chlorobenzyl)-N-(4-(4-fluorophenoxy)phenyl)pyrrolidine-2-carboxamide] | ≤ 0.3 µM |
| O=C(Nc1ccc(Oc2ccc(F)cc2)cc1)[C@@H]1C[C@@H](Cc2ccccc2)CN1C(=O)Cn1nccn1 [Compound 58, (2S,4R)-1-(2-(2H-1,2,3-triazol-2-yl)acetyl)-4-benzyl-N-(4-(4-fluorophenoxy)phenyl)pyrrolidine-2-carboxamide] | ≤ 0.3 µM |

Second part, the compound after the results:

| IC50 | Structure (SMILES) |
| --- | --- |
| 0.3 to 1 µM | O=C(CSc1ccccc1)NC(COCc1ccccc1)C(=O)Nc1ccc(Oc2ccccc2)cc1 (stereo not shown) [Compound 313, N-(2-oxo-1-{[(phenylmethyl)oxy]methyl}-2-{[4-(phenyloxy)phenyl]amino}ethyl)-2-(phenylthio)acetamide] |
| > 1 µM | CCN1CCN(CC(=O)N[C@@H](COCc2ccccc2)C(=O)Nc2ccc(Oc3ccc(F)cc3)cc2)CC1 [Compound 114, (S)-3-(benzyloxy)-2-(2-(4-ethylpiperazin-1-yl)acetamido)-N-(4-(4-fluorophenoxy)phenyl)propanamide] |
| 0.3 to 1 µM | O=C(CNCCc1c[nH]cn1)N[C@@H](COCc1ccccc1)C(=O)Nc1ccc(Oc2ccc(F)cc2)cc1 [Compound 216, (S)-2-(2-(2-(1H-imidazol-4-yl)ethylamino)acetamido)-3-(benzyloxy)-N-(4-(4-fluorophenoxy)phenyl)propanamide] |
| ≤ 0.3 µM | O=C(Cn1cncn1)N[C@@H](COCc1ccccc1)C(=O)Nc1ccc(Oc2ccccc2)cc1 [Compound 146, (S)-2-(2-(1H-1,2,4-triazol-1-yl)acetamido)-3-(benzyloxy)-N-(4-phenoxyphenyl)propanamide] |
| 0.3 to 1 µM | CC(C)=CCC[C@H](C)CC(=O)N[C@@H](COCc1ccccc1)C(=O)Nc1ccc(Oc2ccc(F)cc2)cc1 [Compound 248, (S)—N—((S)-3-(benzyloxy)-1-(4-(4-fluorophenoxy)phenylamino)-1-oxopropan-2-yl)-3,7-dimethyloct-6-enamide] |
